Test results published in publication PMC12873548, “D-amino acid substitution and cyclization enhance the stability and antimicrobial activity of arginine-rich peptides” (Microbiology, 2026).
In brackets after ≈: the same amount, converted by molar mass. Non-standard residues stand in square brackets, D forms with d. Residues, ends and D or L forms follow the SMILES beside them. *: point of attachment. NHhexadecyl = CCCCCCCCCCCCCCCCN*

What was measured:
S. aureus (ATCC12600) = type: cell-based, Staphylococcus aureus
Protocol: The MIC of arginine-based peptides was assessed using the microbroth dilution approach. Our in vitro screening included a panel of Gram-negative bacteria, Escherichia coli (ATCC 25922 and enterohaemorrhagic O157:H7) and Pseudomonas aeruginosa (PA01 and the drug-resistant strain NCTC 13437), and Gram-positive bacteria (Staphylococcus aureus ATCC 12600). Five-millilitre overnight cultures in Lysogeny broth, prepared from single isolated colonies, were diluted to 5×10^6 c.f.u. ml^−1 mid-log phase in Mueller–Hinton (MH) broth. Next, peptide concentrations (0 to 1 mM) were serially diluted twofold in 96-well plates and incubated overnight at 37 °C with the tested bacterial strains. In each case, the MIC was determined as the lowest peptide concentration at which no detectable bacterial growth was observed, employing an absorbance-based assay using a Tecan Spark® multimode plate reader. Subsequently, 10 µl aliquots from each peptide dilution were transferred to MH agar (1.5%) plates to determine the minimum bactericidal concentration (MBC) which was assessed by establishing at which concentration no visible growth of bacteria (assessed via colony formation) on the plate was observed.

[1] = Stability in human serum by LC-MS; type: in vitro ADME; details: human serum (20% and 50%), 24 h, 37 °C; read-out LC-MS (ESI)
Protocol: (§1) The antimicrobial activity and structural stability of arginine-rich peptides were evaluated in the presence of human serum (20% and 50 %) and 5 µM Sequencing Grade Modified Trypsin (SGMT, Promega). Briefly, fresh human blood was collected in EDTA tubes and allowed to clot at room temperature for 1 h. Serum was then collected following centrifugation at 2,000 r.p.m. for 10 min at 4 °C. Peptides were incubated with 20%, 50% human serum and 5 µM SGMT in 50 mM Tris-HCl buffer (1 mM CaCl₂, pH 7.6) for 24 h at 37 °C. After the incubation period, the solutions were further incubated with E. coli (ATCC 25922 and O157:H7), P. aeruginosa (PA01, NCTC13437) and S. aureus (ATCC12600), and the MIC was assessed as described in the ‘Antibacterial assessment’ section. Additionally, the samples were analysed using electrospray ionization MS to monitor structural changes based on the molecular weight of the peptides.

[2] = molecular target: T1, Sequencing Grade Modified Trypsin (Sus scrofa, UniProt P00761); assay: Stability with trypsin by LC-MS; type: in vitro ADME; details: 5 µM SGMT trypsin, 50 mM Tris-HCl, 1 mM CaCl2, pH 7.6, 24 h, 37 °C; read-out LC-MS (ESI)
T1 construct: purchased Promega
T1 sequence (P00761 9-231): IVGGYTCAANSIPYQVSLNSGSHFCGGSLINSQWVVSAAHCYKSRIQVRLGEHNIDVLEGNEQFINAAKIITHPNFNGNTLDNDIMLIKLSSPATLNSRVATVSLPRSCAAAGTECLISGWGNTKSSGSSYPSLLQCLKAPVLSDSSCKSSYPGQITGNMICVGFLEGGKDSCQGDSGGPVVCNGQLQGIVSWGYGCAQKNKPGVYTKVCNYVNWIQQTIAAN
Protocol: as §1

S. aureus = assay: Intracellular ROS, DCFH-DA; type: cell-based, Staphylococcus aureus; details: peptides at MIC, 1/2× MIC, 1/4× MIC, 4 h, 37 °C
Protocol: (§2) Total reactive oxygen species (ROS) was measured using an oxidation-sensitive fluorescent dye, 2′,7′-dichlorodihydrofluorescein diacetate (DCFH-DA). For this assay, E. coli and S. aureus cultures were adjusted to an OD600 of 0.3 in MH broth and exposed to peptides at MIC, 1/2× MIC and 1/4× MIC, or to positive control (5 mM H2O2) for 4 h at 37 °C. Cells were centrifuged at 4,000 r.p.m. for 10 min at 4 °C and resuspended in PBS containing 10 µM DCFH-DA. The suspension was incubated under the same conditions for 30 min. Finally, cells were washed twice with PBS, and 150 µl aliquots were transferred to 96-well plates. Oxidized DCF products were detected using a Tecan Spark® microplate reader with excitation at 485 nm and emission at 530 nm. Additionally, 10 µl of E. coli cells incubated with D-R4F4 at MIC, 1/2×MIC and 1/4×MIC was collected for imaging using an All-in-One Fluorescence Microscope (Keyence, Japan).

E. coli ATCC 25922 [3] = assay: Membrane integrity, PI uptake; type: cell-based, Escherichia coli; details: E. coli ATCC 25922, 5 µg ml−1 PI, 1 h
Protocol: (§3) Propidium iodide (PI) uptake was used to assess the permeabilization of the bacterial membrane upon incubation with peptides. E. coli and S. aureus cells, adjusted to an OD600 of 0.5, were placed into a 96-well plate containing 5 mM HEPES buffer (pH 7.4, supplemented with 5 mM glucose) and incubated with 5 µg ml^−1 PI for 15 min. Afterwards, different peptide concentrations were added, and PI uptake was rapidly measured every 10 min over a 1 h period using a Tecan Spark® microplate reader (λex=515 nm, λem=620 nm).

E. coli = assay: Intracellular ROS, DCFH-DA; type: cell-based, Escherichia coli; details: peptides at MIC, 1/2× MIC, 1/4× MIC, 4 h, 37 °C
Protocol: as §2

E. coli ATCC 25922 [4] = assay: Cytoplasmic membrane depolarization, DiSC3(5); type: cell-based, Escherichia coli; details: peptide at 2× MIC or 1,000 µM, positive control Triton X-100
Protocol: The dye 3,3′-dipropylthiadicarbocyanine iodide DiSC3(5) was employed to evaluate perturbation of the bacterial membrane by our designed arginine-rich peptides. For this, a black 96-well microtiter plate containing 150 µl E. coli cells (OD600=0.5) in MH broth per well was incubated with 0.5 µM DiSC3(5) in 5 mM HEPES buffer (pH 7.4, supplemented with 5 mM glucose and 0.1 M KCl) for 15 min to allow for fluorescence quenching. Then, 2× MIC or 1 mM peptide was added, and changes in fluorescence were monitored in real-time (λex=622 nm, λem=670 nm) using a microplate reader.

S. aureus ATCC 12600 = assay: Membrane integrity, PI uptake; type: cell-based, Staphylococcus aureus; details: S. aureus ATCC 12600, 5 µg ml−1 PI, 1 h
Protocol: as §3

SMILES | MBC (S. aureus (ATCC12600); ATCC12600) [µM] | MIC (S. aureus (ATCC12600); ATCC12600, 24 h) [µM] | Stability with serum proteases (LC chromatogram and mass spectrum) [1] | Stability with trypsin (LC chromatogram and mass spectrum) [2] | Intracellular ROS levels (S. aureus) | PI uptake, membrane integrity (E. coli ATCC 25922 [3]) | Intracellular ROS levels (E. coli) | Cytoplasmic membrane depolarization, DiSC3(5) fluorescence (E. coli ATCC 25922 [4]) | PI uptake, membrane integrity (S. aureus ATCC 12600)
N=C(N)NCCC[C@@H](N)C(=O)N[C@@H](CCCNC(=N)N)C(=O)N[C@H](CCCNC(=N)N)C(=O)N[C@@H](CCCNC(=N)N)C(=O)N[C@H](Cc1ccccc1)C(=O)N[C@@H](Cc1ccccc1)C(=O)N[C@H](Cc1ccccc1)C(=O)N[C@@H](Cc1ccccc1)C(=O)O [D-R4F4] (H-[dR]R[dR]R[dF]F[dF]F-OH) | 250 (≈ 308 µg/mL) | 125 (≈ 154 µg/mL) | appeared at the same retention time in both the absence and presence of proteases | appeared at the same retention time in both the absence and presence of proteases |  |  |  |  | 
CCCCCCCCCCCCCCCCNC(=O)[C@H](CCCNC(=N)N)NC(=O)[C@H](CCCNC(=N)N)NC(=O)[C@H](CCCNC(=N)N)NC(=O)[C@@H](N)CCCNC(=N)N [Peptide R4-C16] (H-RRRR-NHhexadecyl; N-terminus and C-terminus assumed) |  |  |  |  | highest modulation of ROS levels | membrane-disruptive activity | highest modulation of ROS levels | significantly higher fluorescence levels compared to the positive control | membrane-disruptive activity
